Reference: US8940291B2 (priority 2009, dated 2015)
Entries after “also recorded” stand apart in the source; their conditions may differ. Read-outs that look alike come from different tables or passages of the source.

Experiments:
VSVΔ51-induced genes = format: cell-based, mouse
B16 melanoma cells = test: Cell cycle analysis in B16 melanoma cells (propidium iodine, flow cytometry); format: cell-based, mouse; settings: over 48 hours
VSVΔ51 [1] = format: cell-based, Vesicular stomatitis virus
wild type VSV = format: cell-based, Vesicular stomatitis virus
4T1 cells = format: cell-based, mouse; settings: 48 h
CT26 cells = format: cell-based, mouse; settings: 48 h
[2] = test system: oncolytic vaccinia virus (VVdd); format: cell-based; settings: 20 μM; 72 h
[3] = test system: IFN mediated antiviral state in U251 cells; format: cell-based, human
VSVΔ51 [4] = format: cell-based, Vesicular stomatitis virus; settings: 40 h
ISRE-luciferase reporter = format: cell-based, human
VSVΔ51 [5] = format: cell-based, Vesicular stomatitis virus; remark: listed apart in the source
VSVΔ51 [6] = format: cell-based, Vesicular stomatitis virus; remark: listed apart in the source
VSVΔ51 [7] = format: cell-based, Vesicular stomatitis virus; settings: 48 hours
VSVΔ51 [8] = format: cell-based, Vesicular stomatitis virus; remark: listed apart in the source
[9] = test system: IFN responsive U251 cells; format: cell-based, human
VSVΔ51 [10] = format: cell-based, Vesicular stomatitis virus; remark: listed apart in the source
wild type VSV (wtVSV) = format: cell-based, Vesicular stomatitis virus
VSVΔ51 [11] = format: cell-based, Vesicular stomatitis virus; remark: listed apart in the source
[12] = 4 h pre-treatment, with and without VSVΔ51

## Parbendazole
4T1 and CT26 cells; [12]
  VSV-induced cytotoxicity (VSV/CTRL kill ratio): enhance VSV-induced cytotoxicity

## COC(=O)Nc1nc2ccc(C(=O)c3cccs3)cc2[nH]1 [Nocodazole]
4T1 and CT26 cells; [12]
  VSV-induced cytotoxicity (VSV/CTRL kill ratio): enhance VSV-induced cytotoxicity

## O=C(CCCCCCC(=O)Nc1ccccc1)NO [SAHA, reference compound]
VSVΔ51-induced genes
  share of VSVΔ51-induced cellular genes whose induction is reduced: 79%

## CCC1=C[C@@H]2CN(C1)Cc1c([nH]c3ccccc13)[C@@](C(=O)OC)(c1cc3c(cc1OC)N(C)[C@H]1[C@@](O)(C(=O)OC)[C@H](OC(C)=O)[C@]4(CC)C=CCN5CC[C@]31[C@@H]54)C2 [Vinorelbine base, Vinorelbine Base]
4T1 and CT26 cells; [12]
  VSV-induced cytotoxicity (VSV/CTRL kill ratio): enhance VSV-induced cytotoxicity

## CC(/C=C/C(=O)NO)=C\[C@@H](C)C(=O)c1ccc(N(C)C)cc1 [TSA, reference compound]
B16 melanoma cells
  cell cycle distribution: blocks the cell cycle in G1

## O=C1OC(c2ccccc2)C(Cl)=C1Cl (stereo not shown) [VSe1, 3,4-dichloro-5-phenyl-2,5-dihydrofuran-2-one]
VSVΔ51 [1]
  increase in viral titer: 1000 fold
Wild type VSV
  growth of VSV with a wild type M gene: minimal ability to enhance the growth
4T1 cells
  cell killing in combination with VSVΔ51 (combination index): synergistic cell killing
CT26 cells
  cell killing in combination with VSVΔ51 (combination index): synergistic cell killing
[2]
  VVdd spread and viral output: able to enhance the spread and replication; also recorded: enhanced spread and viral output; also recorded: enhances spread
B16 melanoma cells; listed as DCPDF
  cell cycle distribution: cells ultimately accumulate in G1; also recorded: block in G1
[3]
  sensitivity of IFN-protected cells to VSVΔ51: partially re-sensitized to VSVΔ51; also recorded: can overcome pre-existing IFN mediated antiviral state
VSVΔ51 [4]
  interferon protection from VSVΔ51 infection: partially overcome
ISRE-luciferase reporter
  interferon dependent transcription (luciferase): blunted
VSVΔ51-induced genes
  share of VSVΔ51-induced cellular genes whose induction is reduced: over 96%
VSVΔ51 [5]
  differential in replication between normal and cancerous tissues: roughly 1000 fold
  growth of VSVΔ51 in tumour tissue: over 100 fold
VSVΔ51 [5]; 40 μM
  VSVΔ51-GFP growth and spread (green fluorescence): significantly enhanced
VSVΔ51 [6]
  replication of VSVΔ51 in normal tissues: did not increase the replication

## CCCSc1ccc2nc(NC(=O)OC)[nH]c2c1 [Albendazole]
4T1 and CT26 cells; [12]
  VSV-induced cytotoxicity (VSV/CTRL kill ratio): enhance VSV-induced cytotoxicity

## COc1cc2c(c(OC)c1OC)-c1ccc(OC)c(=O)cc1[C@@H](NC(C)=O)CC2 [colchicine]
VSVΔ51 [7]
  lowest dose with strong enhancement of VSVΔ51 (GFP) spread: 80 nM
VSVΔ51 [8]
  enhancement of virus production (maximum): ~1000 fold
[9]
  VSV oncolysis: enhanced VSV oncolysis
  ability to overcome IFN-induced antiviral effects: could not overcome IFN-induced antiviral effects
VSVΔ51 [10]
  VSVΔ51 spread: enhanced spread of VSVΔ51
Wild type VSV (wtVSV)
  number of GFP positive cells with wtVSV: appeared to decrease the number of GFP positive cells
VSVΔ51 [11]
  enhancement of VSVΔ51 spread: not observed in normal MRC-5 cells
4T1 and CT26 cells
  VSV-induced cytotoxicity (VSV/CTRL kill ratio): enhance VSV-induced cytotoxicity
